In US9102648B1, “Bioavailable diacylhydrazine ligands for modulating the expression of exogenous genes via an ecdysone receptor complex” (Intrexon Corporation, priority 2003, dated 2015):

Key:
[1] = molecular target: T1, Bombyx mori EcR (VP16 fusion, CVBE switch construct) (Bombyx mori, UniProt P49881); test: Z3 Assay (HEK-293 cells with CVBE and 6XEcRE LacZ, β-galactosidase reporter); settings: for Fold Induction, Z3 Assay, 3.3 uM: 3.3 uM ligand; for Fold Induction, Z3 Assay, 3.3 uM / Fold Induction, Z3 Assay, 33 uM: ligand treated / DMSO treated cells; for Fold Induction, Z3 Assay, 3.3 uM / Fold Induction, Z3 Assay, 33 uM / EC50: average of two wells; for Fold Induction, Z3 Assay, 33 uM: 33 uM ligand; for Z3 assay Rel Max FI: maximum fold induction at any concentration relative to that of GS-E ligand; for Z3 assay Rel Max FI / EC50: HEK-293 Z3 cells; for EC50: read-out: Z3 assay EC50, β-galactosidase reporter
T1 sequence (P49881 86-606): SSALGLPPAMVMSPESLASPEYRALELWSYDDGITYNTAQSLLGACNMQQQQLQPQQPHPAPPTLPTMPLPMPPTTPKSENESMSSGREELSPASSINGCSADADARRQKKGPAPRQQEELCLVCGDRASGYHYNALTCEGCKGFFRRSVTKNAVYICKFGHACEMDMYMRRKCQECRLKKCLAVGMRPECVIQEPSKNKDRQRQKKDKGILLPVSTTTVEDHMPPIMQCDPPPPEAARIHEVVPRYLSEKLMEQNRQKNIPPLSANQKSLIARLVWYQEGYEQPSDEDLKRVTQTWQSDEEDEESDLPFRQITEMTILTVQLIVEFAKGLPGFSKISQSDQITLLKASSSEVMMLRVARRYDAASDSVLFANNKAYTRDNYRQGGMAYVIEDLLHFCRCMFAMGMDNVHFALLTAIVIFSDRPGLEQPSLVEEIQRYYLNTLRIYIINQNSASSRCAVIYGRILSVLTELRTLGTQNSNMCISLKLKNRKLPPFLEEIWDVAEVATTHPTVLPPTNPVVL
T1 sequence (P19793 1-462 partner): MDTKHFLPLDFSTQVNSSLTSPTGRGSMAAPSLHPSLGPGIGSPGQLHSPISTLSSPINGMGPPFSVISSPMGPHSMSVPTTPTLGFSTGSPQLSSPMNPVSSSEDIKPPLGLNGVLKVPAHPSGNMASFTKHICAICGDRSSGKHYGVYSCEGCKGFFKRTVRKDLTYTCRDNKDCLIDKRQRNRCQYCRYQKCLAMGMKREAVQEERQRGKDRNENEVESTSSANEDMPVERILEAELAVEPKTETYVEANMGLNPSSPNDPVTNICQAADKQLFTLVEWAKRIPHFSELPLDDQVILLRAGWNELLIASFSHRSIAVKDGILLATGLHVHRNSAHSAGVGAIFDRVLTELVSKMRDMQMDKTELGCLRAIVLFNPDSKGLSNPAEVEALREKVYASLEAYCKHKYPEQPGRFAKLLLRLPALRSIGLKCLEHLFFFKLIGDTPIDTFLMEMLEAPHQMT

[2] = molecular target: GAL4 DBD-CfEcR(DEF)/VP16AD-MmRXRE (Choristoneura fumiferana, UniProt O77240); test: 13B3 Assay (CHO stable cell line, luciferase reporter); settings: for Fold Induction, 13B3 Assay, 3.3 uM: 3.3 uM ligand; for Fold Induction, 13B3 Assay, 3.3 uM / Fold Induction, 13B3 Assay, 33 uM: RLU ligand treated / RLU DMSO treated cells; for Fold Induction, 13B3 Assay, 3.3 uM / Fold Induction, 13B3 Assay, 33 uM / EC50: average of two wells; for Fold Induction, 13B3 Assay, 33 uM: 33 uM ligand; for 13B3 assay Rel Max FI: maximum fold induction at any concentration relative to that of GS-E ligand, CHO 13B3 cells; for EC50: read-out: 13B3 EC50, CHO 13B3 stable cell line, luciferase reporter, 48 h
How it was run: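 CHO 13B3 clone stably expressing GAL4 DBD–CfEcR(DEF) and VP16AD–MmRXR(DE) with GAL4 RE–luciferase reporter; cells plated 24 h at 37 °C, then treated with ligands (DMSO stocks diluted 300-fold), 8 concentrations 33–0.01 μM.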

Structure (SMILES) | Fold Induction, Z3 Assay, 3.3 uM [1] | Fold Induction, Z3 Assay, 33 uM [1] | Z3 assay Rel Max FI [1] | EC50 [1] [nM] | Fold Induction, 13B3 Assay, 3.3 uM [2] | Fold Induction, 13B3 Assay, 33 uM [2] | 13B3 assay Rel Max FI [2] | EC50 [2] [nM]
CCc1ccc(C(=O)NN(C(=O)c2cc(C)cc(Cl)c2)C(C)(C)C)cc1 [RG-101774] | 631 | 429 | 0.943 | 155 | 987 | 526 | 0.657 | 327
CCc1ccc(C(=O)NN(C(=O)c2cc(C)c(C)c(Cl)c2)C(C)(C)C)cc1 [RG-101863] | 832 | 374 | 0.953 | 257 | 3187 | 207 | 0.837 | 728
CCc1ccc(C(=O)NN(C(=O)c2cc(C)cc(C)c2)C(C)(C)C)cc1Cl [RG-101864] | 796 | 494 | 1.075 | 245 | 5959 | 349 | 0.460 | 288
Cc1cc(C)cc(C(=O)N(NC(=O)c2ccc3c(c2)CCCC3)C(C)(C)C)c1 [RG-101887] | 1004 | 334 | 0.930 | 257 | 2462 | 542 | 0.579 | 861
C=Cc1c(OC)cccc1C(=O)NN(C(=O)c1cc(C)cc(C)c1)C(C)(C)C [RG-102021] | 417 | – | 0.920 | 513 | 4081 | – | 1.136 | 4040
CCc1ccc(C(=O)NN(C(=O)c2ccccc2CC)C(C)(C)C)cc1 [RG-102592] | 746 | 574 | 0.699 | 3890 | 194 | 909 | 0.684 | 4920
CCc1ccc(C(=O)NN(C(=O)c2cc(C)cc(C)c2)C(C)C(C)(C)C)cc1 (stereo not drawn) [RG-103451] | 67 | 118 | 1.054 | 83 | 576 | 661 | 0.742 | 208
COCc1c(OC)cccc1C(=O)NN(C(=O)c1cc(C)cc(C)c1)C(C)(C)C [RG-115117] | 7 | – | 0.36 | 3930 | 1 | – | 0 | > 50000
